For 16 compounds, inhibition results are on record in patent US8080540B2, “Therapeutically active triazoles and their use” (Abbott Products GmbH, priority 2006, dated 2011).

This assay concerns the target T1, recombinant human 17β-HSD1 (Homo sapiens, UniProt P14061).
T1 construct: made in house; host or cells: Sf9 insect cells (baculovirus, Bac to Bac Expression System); microsomal fraction used
T1 sequence (P14061 1-328): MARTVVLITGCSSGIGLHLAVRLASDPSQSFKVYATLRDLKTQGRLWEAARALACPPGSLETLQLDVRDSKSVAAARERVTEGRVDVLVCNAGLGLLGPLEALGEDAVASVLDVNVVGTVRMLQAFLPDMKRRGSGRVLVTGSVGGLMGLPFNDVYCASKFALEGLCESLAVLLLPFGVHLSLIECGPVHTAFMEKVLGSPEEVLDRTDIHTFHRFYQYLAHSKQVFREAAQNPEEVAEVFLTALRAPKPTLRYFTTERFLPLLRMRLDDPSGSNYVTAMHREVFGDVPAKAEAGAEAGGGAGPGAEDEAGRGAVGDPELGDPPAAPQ
Nature of the assay: Inhibition of recombinant human 17β-HSD1 (HPLC assay, conversion of 3H-estrone to estradiol). Conditions: 0.5 h, 30 nM 3H-estrone, 1 mM NADPH, 30 min RT, read-out: inhibition of rec. 17 β-HSD1; for inhibition at 0.1 µM: 100 nM inhibitor; for inhibition at 1 µM: 1 μM inhibitor. In kind it is biochemical. On the procedure: 17β-HSD1 purification: Recombinant baculovirus was generated by the “Bac to Bac Expression System” (Invitrogen). Recombinant bacmid was transfected to Sf9 insect cells using “Cellfectin Reagent” (Invitrogen). 60 h later cells were harvested; the microsomal fraction was isolated as described by Puranen et al. (1994). Aliquots were stored frozen until determination of enzymatic activity. Assay—Inhibition of recombinant human 17β-HSD1: Recombinant protein (0.1 μg/ml) was incubated in 20 mM KH2PO4 pH 7.4 with 30 nM 3H-estrone and 1 mM NADPH for 30 min at RT, in the presence of potential inhibitors at concentrations of 1 μM or 0.1 μM. Inhibitor stock solutions were prepared in DMSO. Final concentration of DMSO was adjusted to 1% in all samples. The enzyme reaction was stopped by addition of 10% trichloroacetic acid (final concentration). Samples were centrifuged in a microtiter plate at 4000 rpm for 10 min. Supernatants were applied to reverse phase HPLC on a Waters Symmetry C18 column, equipped with a Waters Sentry Guard column. Isocratic HPLC runs were performed at RT at a flow rate of 1 ml/min of acetonitrile:water 48:52 as running solvent. Radioactivity was monitored in the eluate by a Packard Flow Scintillation Analyzer. Total radioactivity for estrone and estradiol were determined in each sample and percent conversion of estrone to estradiol was calculated according to the following formula: [formula] • Percent inhibition was calculated as follows: % inhibition=100−% conversion The values “% inhibition” were determined for exemplified compounds, and the results are summarized in table 4 (for 17β-HSD1).

The inhibition is the relative decrease from the control value, in per cent. With `CC(C)CCc1cn(CCCC[C@@H]2CC(=O)[C@@]3(C)CC[C@@H]4c5ccc(O)cc5CC[C@H]4[C@H]23)nn1` [Compound 48], the inhibition at 0.1 µM was found to be 21% and the inhibition at 1 µM was determined as 73%.
`C[C@]12CC[C@@H]3c4ccc(O)cc4CC[C@H]3[C@@H]1[C@H](CCCCCCn1cc(-c3cccc(O)c3)nn1)CC2=O` [Compound 100]: the inhibition at 0.1 µM amounted to 7% and the inhibition at 1 µM was 48%.
On the same counts, the results for `COc1ccc2c(c1)CC[C@H]1[C@@H]3[C@H](CCCCn4cc(-c5ccc(C)cc5)nn4)CC(=O)[C@@]3(C)CC[C@H]21` [Compound 112] are 12% and 43%.
The like results for `COc1ccc2c(c1)CC[C@H]1[C@@H]3[C@H](CCCn4cc(C5CC5)nn4)CC(=O)[C@@]3(C)CC[C@H]21` [Compound 41] were, in that order, 23% and 77%.
Consider `COc1ccc(-c2cn(CCC[C@H]3CC(=O)[C@@]4(C)CC[C@@H]5c6ccc(O)cc6CC[C@H]5[C@H]34)nn2)cc1` [Compound 20, 3-Hydroxy-15α-{3-[4-(4-methoxy-phenyl)-[1,2,3]triazol-1-yl]-propyl}-estra-1,3,5(10)-trien-17-one], for which the inhibition at 0.1 µM was 51% and the inhibition at 1 µM is 87%.
On the same counts, the results for `COc1ccc2c(c1)CC[C@H]1[C@@H]3[C@H](CCCn4cc(-c5ccc(CO)cc5)nn4)CC(=O)[C@@]3(C)CC[C@H]21` [Compound 60] are 19% and 69%.
The like results for `CC(C)CCc1cn(CCCCCC[C@@H]2CC(=O)[C@@]3(C)CC[C@@H]4c5ccc(O)cc5CC[C@H]4[C@H]23)nn1` [Compound 69] were, in that order, 30% and 64%.
Turning to `COc1ccc2c(c1)CC[C@H]1[C@@H]3[C@H](CCCCn4cc(CO)nn4)CC(=O)[C@@]3(C)CC[C@H]21` [Compound 122], the inhibition at 0.1 µM came to 5% and the inhibition at 1 µM was 38%.
The like results for `CC(C)Cc1cn(CCCCCC[C@@H]2CC(=O)[C@@]3(C)CC[C@@H]4c5ccc(O)cc5CC[C@H]4[C@H]23)nn1` [Compound 58] were, in that order, 20% and 70%.
For `C[C@]12CC[C@@H]3c4ccc(O)cc4CC[C@H]3[C@@H]1[C@H](CCCCn1cc(CCc3ccccc3)nn1)CC2=O` [Compound 33], the inhibition at 0.1 µM stood at 20% and the inhibition at 1 µM turned out to be 80%.
The like results for `C[C@]12CC[C@@H]3c4ccc(O)cc4CC[C@H]3[C@@H]1[C@@H](CCCn1cc(CCc3ccccc3)nn1)CC2=O` [Compound 16, 3-Hydroxy-15α-[3-(4-phenethyl-[1,2,3]triazol-1-yl)-propyl]-estra-1,3,5(10)-trien-17-one] were, in that order, 38% and 89%.
The like results for `COc1ccc2c(c1)CC[C@H]1[C@@H]3[C@H](CCCn4cc(-c5ccsc5)nn4)CC(=O)[C@@]3(C)CC[C@H]21` [Compound 59] were, in that order, 18% and 69%.
On the same counts, the results for `Cc1ccc(-c2cn(CCC[C@H]3CC(=O)[C@@]4(C)CC[C@@H]5c6ccc(O)cc6CC[C@H]5[C@H]34)nn2)cc1` [Compound 25, 3-Hydroxy-15α-[3-(4-p-tolyl-[1,2,3]triazol-1-yl)-propyl]-estra-1,3,5(10)-trien-17-one] are 49% and 85%.
Regarding `COc1ccc2c(c1)CC[C@H]1[C@@H]3[C@H](CCCn4cc(-c5ccccc5[N+](=O)[O-])nn4)CC(=O)[C@@]3(C)CC[C@H]21` [Compound 37], the inhibition at 0.1 µM is 25% and the inhibition at 1 µM stood at 80%.
On the same counts, the results for `COc1ccc2c(c1)CC[C@H]1[C@@H]3[C@H](CCCCn4cc(C5CC5)nn4)CC(=O)[C@@]3(C)CC[C@H]21` [Compound 111] are 4% and 43%.
The like results for `C[C@]12CC[C@@H]3c4ccc(O)cc4CC[C@H]3[C@@H]1[C@H](CCn1cc(-c3cc(F)cc(F)c3)nn1)CC2=O` [Compound 5, 3-Hydroxy-15β-{2-[4-(3,5-Difluoro-phenyl)-[1,2,3]triazol-1-yl]-ethyl}-estra-1,3,5(10)-trien-17-one] were, in that order, 87% and 95%.
